{"source": "patent US7087430B2", "about": "“Human VNO cDNA libraries” (Pherin Pharmaceuticals, Inc., priority 2000, dated 2006)", "key": {"human VNO": {"system": "human VNO", "conditions": "cited from earlier work"}, "female human VNO cell": {"system": "female human VNO cell", "assay": "Electrophysiological membrane currents in cultured human VNO cells", "type": "cell-based", "text": "FIG. 1 is an electrophysiological trace showing the effects of pertussis toxin on membrane currents induced by a vomeropherin.\nFIG. 1C indicates when the cells were exposed to ADO (i.e., ADO pulses).\nPTX uncouples receptors from their heterotrimeric G proteins and thereby blocks signal transduction. Sensitivity to PTX is an accepted marker for pathways involving G protein-coupled receptors that decrease intracellular CAMP, regulate ion channels or activate phospholipases (i.e., couple to Gi or G0). (For a review, see Simon et al., (1991) Science 252:802–808.) We have also implicated a specific type of ion channel in the response of human VNO cells to vomeropherins. […] However, as noted above, cultured VNO cells are of limited value as a screening tool due to the need to continually isolate new cells. Thus, construction of a cDNA library was desired in order to clone and express pheromone receptors in a cell line.\nAs noted above, […] data (FIG. 1) indicate that cells isolated from the VNO of human volunteers respond electrophysiologically to a vomeropherin via a PTX-sensitive pathway, a hallmark of G protein-coupled receptor signaling. Thus, we anticipated that components of the pathway such as G proteins (e.g., Gi and G0), adenylyl cyclase (e.g., type 3 and 7), and various ion channels are expressed in these cells. We assayed for expression of these proteins in the VNO by screening our library for cDNA clones of the corresponding mRNAs. Knowledge of the signaling components expressed in VNO neurons is essential to express the receptors functionally in tissue culture cells for high throughput drug screening assays."}, "human brain": {"system": "human brain", "conditions": "human volunteers, delivered non-specifically to the nasal cavity, no detectable odor (Sobel et al. 1999); cited from earlier work"}}, "data": [{"compound": "C[C@@]12C=CC[C@H]1[C@@H]1CCC3=CC(=O)CC[C@]3(C)[C@H]1CC2", "note": "[androstadienone, androsta-4,16-dien-3-one]", "values": [{"measurement": "physiological responses on administration to the human VNO", "setting": "human VNO", "result": "induce bradycardia, bradypnea, increases in core body temperature, and other physiological responses"}, {"measurement": "inward membrane currents induced by vomeropherin", "setting": "female human VNO cell; 10^−7M, human VNO cell, FIG. 1A", "result": "inward currents induced"}]}, {"compound": "C[C@@]12C=CC[C@H]1[C@@H]1CCc3cc(O)ccc3[C@H]1CC2", "note": "[estra-1,3,5(10),16-tetraen-3-ol]", "values": [{"measurement": "physiological responses on administration to the human VNO", "setting": "human VNO", "result": "induce bradycardia, bradypnea, increases in core body temperature, and other physiological responses"}]}, {"compound": "CC(=O)Oc1ccc2c(c1)CC[C@@H]1[C@@H]2CC[C@]2(C)C=CC[C@@H]12", "note": "[estra-1,3,5(10),16-tetraen-3yl acetate]", "values": [{"measurement": "brain activation by fMRI", "setting": "human brain", "result": "dose-dependent activation of the anterior medial thalamus, the inferior frontal gyrus, and other regions of the human brain"}, {"measurement": "physiological responses in vivo by site of application", "setting": "human VNO; human subjects, VNO versus olfactory or respiratory epithelium (Monti-Bloch et al. 1994)", "result": "induces physiological responses in vivo only when applied specifically to the VNO"}]}, {"compound": "pertussis toxin", "values": [{"measurement": "effect on ADO-induced inward currents", "setting": "female human VNO cell; cell incubated with 100 ng/ml PTX, FIG. 1B", "result": "blocking the inward currents"}, {"measurement": "effect on electrophysiological response to a vomeropherin", "setting": "female human VNO cell; cultured human VNO neuroepithelial cells, FIG. 1", "result": "blocks the electrophysiological response to a vomeropherin"}]}]}
